How the values were obtained:
Gram positive rods (S) = assay: MBC (minimum bactericidal concentration) test in Wash NEXT reagent; type: cell-based
Protocol: (§1) The stock organisms were thawed and subbed prior to beginning the MBC test. Molds were subbed to SDA plates one week before, and the bacteria were subbed to TAT agar plates 24 hours prior to the start of the test. All plates were incubated at 32 degrees C.
Each bacterial organism was inoculated into 40 ml sterile saline in a centrifuge tube to create a density of MacFarland #1. Two serial dilutions of 1:100 were then made, resulting in 10^−2 and 10^−4 concentrations. Each dilution was vortexed before it was sampled, and sterile Eppendorf pipette tips were used to make each transfer. The 10^−4 dilution was spiral plated to yield the initial inoculum concentration.
(§2) MBC trays were set up with the prepared test reagent. Using a Matrix pipettor, 100 μl aliquots of reagent were distributed into the wells, diluting the amount of preservative from 100% to 10% increments, using unpreserved reagent as the diluent. In one row, 100% non-preserved reagent acted as a positive control and served as a benchmark for a full mat of growth. In well #12H, 100 μl unpreserved reagent was pipetted, and this well was not inoculated with organisms, as it served as the negative control. Once all of the trays were prepared, the prepared bacteria/mold suspensions were poured into the MBC inoculating trays. These were placed onto the reagent trays, and 0.01 ml inoculum was introduced into the 100 μl of reagent in each well.
(§3) This was done by dipping a sterile cotton swab into each well, and absorbing all of the liquid in the well. The swab was rolled onto a TAT agar plate ensuring that the entire swab touches the agar. Plates ware incubated at 32 degrees C. for 48 hours to 7 days, depending on the organism. Observations for growth were performed by a scoring matrix using + for a full mat, +/− for some growth, a numerical value for an actual colony count, and—for no growth.
(§4) Below are tables that contain the data obtained in Example 1. The MBC test is scored by (+) indicating a full grown mat of organisms, equivalent to the organisms in the unpreserved reagent. (+/−) indicates there is some kill evident disturbing that mat or bringing the quantities down to an almost countable level. An actual number is the actual number of colonies growing at that concentration of preservative. (−) indicates no growth found. The MBC trays were stored at room temperature for the entire test.
(§5) The materials and methods and analysis of the MBC test were the same as in Example 1.

[1] = system: Aspergillus glaucus- DMO (Q); assay: as above; type: cell-based; conditions: at 14 days
Protocol: as §1
For the molds, each organism was inoculated into 40 ml sterile saline in a centrifuge tube to create a density of MacFarland #5. Two serial dilutions of 1:100 were then made, resulting in 10^−2 and 10^−4 concentrations. Each dilution was vortexed before it was sampled, and sterile Eppendorf pipette tips were used to make each transfer. The 10^−4 dilution was spiral plated to yield the initial inoculum concentration.
as §2, §3, §4, §5

Q: What does the source list for Cc1cc(NS(=O)(=O)c2ccc(N)cc2)no1 [Sulfamethoxazole, sulfamethoxazole]?
A: MBC test growth score (Gram positive rods (S); 10% preservative, 8 hour): +; MBC test growth score (Gram positive rods (S); 10% preservative, 24 hour): +; MBC test growth score (Gram positive rods (S); 10% preservative, 48 hour): +; MBC test growth score (Gram positive rods (S); 10% preservative, 72 hour): +; MBC test growth score (Gram positive rods (S); 10% preservative, 7 day): +; MBC test growth score (Gram positive rods (S); 10% preservative, 14 day): +; MBC test growth score (Gram positive rods (S); 20% preservative, 8 hour): +; MBC test growth score (Gram positive rods (S); 20% preservative, 24 hour): +; MBC test growth score (Gram positive rods (S); 20% preservative, 48 hour): +; MBC test growth score (Gram positive rods (S); 20% preservative, 72 hour): +; MBC test growth score (Gram positive rods (S); 20% preservative, 7 day): +; MBC test growth score (Gram positive rods (S); 20% preservative, 14 day): +; MBC test growth score (Gram positive rods (S); 30% preservative, 8 hour): +; MBC test growth score (Gram positive rods (S); 30% preservative, 24 hour): +; MBC test growth score (Gram positive rods (S); 30% preservative, 48 hour): +; MBC test growth score (Gram positive rods (S); 30% preservative, 72 hour): +; MBC test growth score (Gram positive rods (S); 30% preservative, 7 day): +; MBC test growth score (Gram positive rods (S); 30% preservative, 14 day): +; MBC test growth score (Gram positive rods (S); 40% preservative, 8 hour): +; MBC test growth score (Gram positive rods (S); 40% preservative, 24 hour): +; MBC test growth score (Gram positive rods (S); 40% preservative, 48 hour): +; MBC test growth score (Gram positive rods (S); 40% preservative, 72 hour): +; MBC test growth score (Gram positive rods (S); 40% preservative, 7 day): +; MBC test growth score (Gram positive rods (S); 40% preservative, 14 day): +; MBC test growth score (Gram positive rods (S); 50% preservative, 8 hour): +; MBC test growth score (Gram positive rods (S); 50% preservative, 24 hour): +; MBC test growth score (Gram positive rods (S); 50% preservative, 48 hour): +; MBC test growth score (Gram positive rods (S); 50% preservative, 72 hour): +; MBC test growth score (Gram positive rods (S); 50% preservative, 7 day): +; MBC test growth score (Gram positive rods (S); 50% preservative, 14 day): +; MBC test growth score (Gram positive rods (S); 60% preservative, 8 hour): +; MBC test growth score (Gram positive rods (S); 60% preservative, 24 hour): +; MBC test growth score (Gram positive rods (S); 60% preservative, 48 hour): +; MBC test growth score (Gram positive rods (S); 60% preservative, 72 hour): +; MBC test growth score (Gram positive rods (S); 60% preservative, 7 day): +; MBC test growth score (Gram positive rods (S); 60% preservative, 14 day): +; MBC test growth score (Gram positive rods (S); 70% preservative, 8 hour): +; MBC test growth score (Gram positive rods (S); 70% preservative, 24 hour): +; MBC test growth score (Gram positive rods (S); 70% preservative, 48 hour): +; MBC test growth score (Gram positive rods (S); 70% preservative, 72 hour): +; MBC test growth score (Gram positive rods (S); 70% preservative, 7 day): +; MBC test growth score (Gram positive rods (S); 70% preservative, 14 day): +; MBC test growth score (Gram positive rods (S); 80% preservative, 8 hour): +; MBC test growth score (Gram positive rods (S); 80% preservative, 24 hour): +; MBC test growth score (Gram positive rods (S); 80% preservative, 48 hour): +; MBC test growth score (Gram positive rods (S); 80% preservative, 72 hour): +; MBC test growth score (Gram positive rods (S); 80% preservative, 7 day): +; MBC test growth score (Gram positive rods (S); 80% preservative, 14 day): +; MBC test growth score (Gram positive rods (S); 90% preservative, 8 hour): +; MBC test growth score (Gram positive rods (S); 90% preservative, 24 hour): +; MBC test growth score (Gram positive rods (S); 90% preservative, 48 hour): +; MBC test growth score (Gram positive rods (S); 90% preservative, 72 hour): +; MBC test growth score (Gram positive rods (S); 90% preservative, 7 day): +; MBC test growth score (Gram positive rods (S); 90% preservative, 14 day): +; MBC test growth score (Gram positive rods (S); 100% preservative, 8 hour): +; MBC test growth score (Gram positive rods (S); 100% preservative, 24 hour): +; MBC test growth score (Gram positive rods (S); 100% preservative, 48 hour): +; MBC test growth score (Gram positive rods (S); 100% preservative, 72 hour): +; MBC test growth score (Gram positive rods (S); 100% preservative, 7 day): +; MBC test growth score (Gram positive rods (S); 100% preservative, 14 day): +; total kill at % preservative (MBC) [1]: No kill @ 100%
